This passage reports IC50 results from patent publication US10479780B2, “Aminopyrazole derivatives” (Chugai Seiyaku Kabushiki Kaisha, priority 2015, dated 2019).

Where two headings read alike, the source gives them in different places.

Holding throughout (format): biochemical
In assay [1] the target is T1, human Lck enzyme (Homo sapiens, UniProt P06239).
T1 construct: purchased Carna Biosciences, Inc. 08-170
The assay is described as follows: Lck enzyme inhibitory activity (time-resolved fluorometry, biotinylated peptide phosphorylation). The following applies: read-out: LCK_IC50. An outline of the steps: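 Readout pairs a europium cryptate-labelled anti-phosphotyrosine antibody with XL665-streptavidin, measured by time-resolved fluorescence. IC50 derived from percent inhibition against untreated controls.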

For assay [2], the target named is T2, human Yes1 enzyme (Homo sapiens, UniProt P07947).
T2 construct: made in house
Description: Yes1 enzyme inhibitory activity (time-resolved fluorometry, biotinylated peptide phosphorylation). The following applies: read-out: YES_IC50. A digest of the protocol:
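Inhibition was expressed against a compound-free control to give IC50, using TR-FRET read-out (Eu-cryptate anti-pTyr antibody, streptavidin-XL665).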

In assay [3] the target is T3, human Src enzyme (Homo sapiens, UniProt P12931).
T3 construct: purchased Carna Biosciences, Inc. 08-173
Description: Src enzyme inhibitory activity (time-resolved fluorometry, biotinylated peptide phosphorylation). Particulars: read-out: SRC_IC50. An outline of the steps: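 Compounds were tested for blocking tyrosine phosphorylation of a biotinylated peptide substrate by recombinant human Src. Phosphorylated product was quantified by time-resolved fluorometry using europium cryptate and XL665 conjugates, and IC50 was calculated against the compound-free control.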

Setting [4] is: biotinylated peptide phosphorylation.

T2 sequence (P07947 whole entry): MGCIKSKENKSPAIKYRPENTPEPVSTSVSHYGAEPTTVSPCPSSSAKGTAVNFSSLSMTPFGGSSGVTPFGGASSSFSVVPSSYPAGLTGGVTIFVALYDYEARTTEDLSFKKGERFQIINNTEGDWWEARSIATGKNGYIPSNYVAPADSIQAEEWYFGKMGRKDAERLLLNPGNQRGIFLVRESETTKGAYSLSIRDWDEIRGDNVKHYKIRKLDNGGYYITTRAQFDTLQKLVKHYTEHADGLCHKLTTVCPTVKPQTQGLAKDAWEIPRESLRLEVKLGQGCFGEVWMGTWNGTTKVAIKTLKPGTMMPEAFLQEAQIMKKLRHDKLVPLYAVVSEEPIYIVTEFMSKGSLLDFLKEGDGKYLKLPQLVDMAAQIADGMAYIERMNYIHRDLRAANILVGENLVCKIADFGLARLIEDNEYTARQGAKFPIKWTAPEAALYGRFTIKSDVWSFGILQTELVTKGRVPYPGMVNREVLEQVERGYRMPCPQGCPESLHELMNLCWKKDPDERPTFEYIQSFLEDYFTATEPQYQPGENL
T3 sequence (P12931 whole entry): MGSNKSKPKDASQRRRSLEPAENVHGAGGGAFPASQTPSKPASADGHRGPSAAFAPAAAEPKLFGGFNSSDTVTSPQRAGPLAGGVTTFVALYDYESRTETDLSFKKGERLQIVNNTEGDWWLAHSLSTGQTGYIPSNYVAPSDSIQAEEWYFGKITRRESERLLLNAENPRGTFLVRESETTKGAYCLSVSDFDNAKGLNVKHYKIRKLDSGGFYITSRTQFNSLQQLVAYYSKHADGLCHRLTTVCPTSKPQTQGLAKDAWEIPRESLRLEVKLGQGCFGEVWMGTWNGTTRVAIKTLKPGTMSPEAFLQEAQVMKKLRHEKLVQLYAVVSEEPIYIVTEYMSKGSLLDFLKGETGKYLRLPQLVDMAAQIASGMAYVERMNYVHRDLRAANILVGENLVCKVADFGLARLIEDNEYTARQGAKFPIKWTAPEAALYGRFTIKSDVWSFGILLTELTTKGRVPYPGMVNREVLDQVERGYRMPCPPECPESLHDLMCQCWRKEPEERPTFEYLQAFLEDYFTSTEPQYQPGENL
T1 sequence (P06239 whole entry): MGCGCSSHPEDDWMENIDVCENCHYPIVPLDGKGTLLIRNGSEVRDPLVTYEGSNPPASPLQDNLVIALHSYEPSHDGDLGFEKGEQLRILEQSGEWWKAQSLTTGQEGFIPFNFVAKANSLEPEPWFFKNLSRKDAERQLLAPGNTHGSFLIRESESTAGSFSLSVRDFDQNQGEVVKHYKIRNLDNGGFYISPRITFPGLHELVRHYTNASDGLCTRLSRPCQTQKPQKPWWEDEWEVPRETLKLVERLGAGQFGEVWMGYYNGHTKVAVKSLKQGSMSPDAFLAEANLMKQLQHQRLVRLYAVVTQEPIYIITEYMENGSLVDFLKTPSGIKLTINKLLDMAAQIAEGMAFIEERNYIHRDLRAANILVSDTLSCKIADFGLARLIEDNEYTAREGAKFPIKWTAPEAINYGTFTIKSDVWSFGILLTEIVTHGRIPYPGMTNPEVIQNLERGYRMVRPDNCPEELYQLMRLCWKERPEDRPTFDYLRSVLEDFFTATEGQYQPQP

Consider `COc1cccc(S(=O)(=O)Nc2cc3[nH]c(C(=O)c4cnn(-c5cnc(Oc6ccccc6F)cc5C)c4N)cc3cc2C)c1` [Example 5-1-439, N-[2-[5-amino-1-[6-(2-fluorophenoxy)-4-methylpyridin-3-yl]pyrazole-4-carbonyl]-5-methyl-1H-indol-6-yl]-3-methoxybenzenesulfonamide], for which the IC50 in assay [1] (setting [4]) came to 310 nM; in assay [2] (setting [4]) it was 7.3 nM; in assay [3] (setting [4]) it was 690 nM.
For `Cc1cc(Oc2ccccc2Cl)cc(F)c1-n1ncc(C(=O)c2cc3cc(NS(C)(=O)=O)c(F)cc3[nH]2)c1N` [Example 4-2-102, N-[2-[5-amino-1-[4-(2-chlorophenoxy)-2-fluoro-6-methylphenyl]pyrazole-4-carbonyl]-6-fluoro-1H-indol-5-yl]methanesulfonamide], the IC50 stood at 3.9 nM in assay [1] (setting [4]), 0.89 nM in assay [2] (setting [4]) and 48 nM in assay [3] (setting [4]).
Consider `Cc1cc2cc(C(=O)c3cnn(-c4cnc(Oc5c(F)cccc5F)cc4C)c3N)[nH]c2cc1N1C(=O)NC2(CCCC2)C1=O` [Example 5-1-367, 3-[2-[5-amino-1-[6-(2,6-difluorophenoxy)-4-methylpyridin-3-yl]pyrazole-4-carbonyl]-5-methyl-1H-indol-6-yl]-1,3-diazaspiro[4.4] nonane-2,4-dione], for which the IC50 amounted to 16 nM in assay [1], 5.6 nM in assay [2] and 77 nM in assay [3].
In the case of `Cc1cc2cc(C(=O)c3cnn(-c4cnc(Oc5c(F)cccc5F)cc4C)c3N)[nH]c2cc1N1C(=O)[C@@H]2C[C@@H](O)CN2C1=O` [Example 5-1-455, (6R,7aS)-2-[2-[5-amino-1-[6-(2,6-difluorophenoxy)-4-methylpyridin-3-yl]pyrazole-4-carbonyl]-5-methyl-1H-indol-6-yl]-6-hydroxy-5,6,7,7a-tetrahydropyrrolo[1,2-c]imidazole-1,3-dione], the IC50 in assay [1] (setting [4]) was 2.6 nM; in assay [2] (setting [4]), 0.86 nM; in assay [3] (setting [4]), 23 nM.
Consider `Cc1cc2cc(C(=O)c3cnn(-c4ccc(Oc5ccccc5F)cc4C)c3N)[nH]c2cc1N1C(=O)NC(C)(C(F)(F)F)C1=O` (stereo not drawn) [Example 5-1-435, 3-[2-[5-amino-1-[4-(2-fluorophenoxy)-2-methylphenyl]pyrazole-4-carbonyl]-5-methyl-1H-indol-6-yl]-5-methyl-5-(trifluoromethyl) imidazolidine-2,4-dione], for which the IC50 stood at 21 nM in assay [1] (setting [4]), 2 nM in assay [2] (setting [4]) and 120 nM in assay [3] (setting [4]).
Take `Cc1cc(Oc2ccccc2F)ccc1-n1ncc(C(=O)c2cc3cc(C(C)C)c(NS(=O)(=O)C4CCOCC4)cc3[nH]2)c1N` [Example 5-1-282, N-[2-[5-amino-1-[4-(2-fluorophenoxy)-2-methylphenyl]pyrazole-4-carbonyl]-5-propan-2-yl-1H-indol-6-yl]oxane-4-sulfonamide]: the IC50 amounted to 120 nM in assay [1], 4.8 nM in assay [2] and 200 nM in assay [3].
As for `Cc1cc(Oc2c(F)cccc2F)ncc1-n1ncc(C(=O)c2cc3cc(OCC(F)F)c(NS(=O)(=O)c4cncc(Cl)c4)cc3[nH]2)c1N` [Example 5-1-575, N-[2-[5-amino-1-[6-(2,6-difluorophenoxy)-4-methylpyridin-3-yl]pyrazole-4-carbonyl]-5-(2,2-difluoroethoxy)-1H-indol-6-yl]-5-chloropyridine-3-sulfonamide], the IC50 in assay [1] (setting [4]) was 46 nM; in assay [2] (setting [4]) it was 4.3 nM; in assay [3] (setting [4]) it was 650 nM.
`Cc1cc2cc(C(=O)c3cnn(-c4c(C)cc(Oc5ccccc5F)cc4F)c3N)[nH]c2cc1NS(=O)(=O)CC(=O)N1CCCC1` [Example 5-1-110, N-[2-[5-amino-1-[2-fluoro-4-(2-fluorophenoxy)-6-methylphenyl]pyrazole-4-carbonyl]-5-methyl-1H-indol-6-yl]-2-oxo-2-pyrrolidin-1-ylethanesulfonamide]: the IC50 in assay [1] was 10 nM; in assay [2], 7.7 nM; in assay [3], 68 nM.
